The values that follow come from US12226610B2, “Treatment of pain associated with total knee arthroplasty with sustained-release liposomal anesthetic compositions” (Pacira Pharmaceuticals, Inc., priority 2022, dated 2025).

The subject of data set [1] is subjects undergoing primary unilateral TKA. In words: Total postsurgical opioid consumption (OMED) and opioid-free status. The data set is classed as in vivo, human. To be noted: any time interval up to 96 hours post-surgery. The method, then: (§1) This was a Phase 3, multicenter, randomized, double blind, active controlled study of 167 subjects undergoing primary unilateral TKA under spinal anesthesia. The study consisted of 2 cohorts that were enrolled in parallel. Cohort 1 enrolled 46 subjects to obtain information on the PK profile, pharmacodynamics (PD), efficacy, and safety. Cohort 2 enrolled 121 subjects to obtain information on efficacy and safety. An adaptive study design was used in this study, with an interim analysis conducted by an unblinded independent review committee to evaluate sample size assumptions and futility. […]
(§2) An unscheduled pain intensity assessment using the NRS (measured as “On a scale from 0 to 10, where 0 equals no pain and 10 equals the worst possible pain, how much pain are you experiencing in your operative knee right now?”) was to be completed immediately prior to administration of any breakthrough pain medication up to 96 hours post-surgery. Medications were administered as needed; opioids were not to be given on a pre-determined schedule. […]
(§3) Total postsurgical opioid consumption in OMED from 0 to 96 hours was analyzed using an ANCOVA model. Time to first postsurgical opioid medication was analyzed using the Kaplan Meier survival method. […]

Data set [2] has the same test system. As to the kind of experiment: Time to first opioid consumption (rescue medication) post-surgery. The class given is in vivo, human. As to the method: as §1, §2, §3
Data set [3] can be described thus: Plasma bupivacaine pharmacokinetics (Cohort 1). The class given is in vivo, human. The method, then: (§4) This was a Phase 3, multicenter, randomized, double blind, active controlled study of 167 subjects undergoing primary unilateral TKA under spinal anesthesia. The study consisted of 2 cohorts that were enrolled in parallel. Cohort 1 enrolled 46 subjects to obtain information on the PK profile, pharmacodynamics (PD), efficacy, and safety. Cohort 2 enrolled 121 subjects to obtain information on efficacy and safety. An adaptive study design was used in this study, with an interim analysis conducted by an unblinded independent review committee to evaluate sample size assumptions and futility.
(§5) On the day of surgery, prior to surgery, subjects in Cohort 1 and Cohort 2 were randomized (1:1) to receive an adductor canal block with a single dose of either 10 mL EXPAREL (133 mg) admixed with 10 mL 0.5% bupivacaine HCl (50 mg; from hereon referred to as the EXP133-ADMIX arm) or 10 mL 0.5% bupivacaine HCl (50 mg) mixed with 10 mL normal saline (from hereon referred to as the BUP50 arm). The total dose volume was consistent (20 mL) for all subjects.
(§6) Efficacy assessments included pain intensity scores focused on the operative knee using the Numeric Rating Scale (NRS), total postsurgical opioid consumption in OMED, time to first opioid consumption post-surgery, and subject satisfaction using the International Pain Outcome (IPO). Additionally, blood samples for PK analysis (area under the curve [AUC], maximum plasma concentration [Cmax], time of maximum plasma concentration [Tmax], including early and late Cmax and Tmax (EXP133-ADMIX arm only), apparent terminal elimination half-life [t½e1], apparent clearance [CL/F], and apparent volume of distribution [Vd/F]) and PD assessment data (sensory and motor block) were collected from Cohort 1 subjects.
Pharmacokinetic endpoints included area under the plasma concentration-versus-time curve, specifically from the time of dosing to the time of the last quantifiable concentration (AUC0-last) and AUC from the time of dosing to infinity (AUC0-∞); maximum plasma concentration (Cmax) and time of maximum plasma concentration (Tmax) for subjects treated with bupivacaine HCl; early and late Cmax and Tmax were determined for subjects treated with EXPAREL admixed with bupivacaine HCl (EXP133-ADMIX arm); t½e1; CL/F; Vd/F.

Data set [4] relates to sensory block and motor block. As to the kind of experiment: Pharmacodynamic assessment of sensory and motor block (Cohort 1). The class given is in vivo, human. The method, then:
as §4, §5, §6
Pharmacodynamic endpoints included: duration of the sensory block and motor block; time to onset of sensory block and motor block; and time to offset of sensory block and motor block.

In data set [5] the test system is subjects undergoing primary unilateral TKA. In words: Safety assessments (TEAEs, SAEs, vital signs, EKG). Further details: species or system human. To be noted: in vivo. An excerpt: Safety assessments included monitoring of AEs (including SAEs and adverse events of special interest [AESIs]), vital signs (temperature, resting heart rate, respiratory rate, oxygen saturation, and blood pressure), 12 lead EKG, and recording of concomitant medications.
Safety endpoints included incidence of treatment emergent adverse events and SAEs from start of the nerve block procedure through POD14; change from baseline in vital signs over time; and abnormal post-baseline EKG findings.
Adverse events and SAEs were recorded from the time of informed consent through POD14. Adverse events were coded using the Medical Dictionary for Regulatory Activities version 24.1 and summary tables were based on the Safety Analysis Set. A subject data listing was provided for all AEs, which included the reported term, preferred term, system organ class, treatment-emergent adverse event flag, study day of AE onset, AE start/stop date and time, relationship to study drug, frequency, severity, action taken with subject, outcome, and seriousness criteria.
Vital signs and their change from baseline were summarized with mean, median, and standard deviation at baseline and at each scheduled time point. The frequency and percentage of EKG findings (normal, abnormal/not clinically significant, and abnormal/clinically significant) were summarized at screening and each scheduled time point.
An AE can be defined as any untoward medical occurrence associated with the use of a drug in humans, whether or not considered drug related. An AE (also referred to as an adverse experience) could be any unfavorable and unintended sign (e.g., abnormal laboratory finding), symptom, or disease temporally associated with the use of a drug, without any judgment about causality. An AE could arise from any use of the drug (e.g., off-label use in combination with another drug) and from any route of administration, formulation, or dose, including an overdose.
An AE that occurred after administration of the study treatment was considered a treatment-emergent adverse event (TEAE). A continuous AE with varying grades of severity was to be recorded as 1 AE. The highest grade of severity experienced by that subject during the course of the continuous AE was to be recorded.
Assessment of the relationship of the AE to study drug after careful medical consideration on a case-by-case basis. […]

Each structure is given as a SMILES string. Counter-ions that a name gives are not always drawn.

`CCCCN1CCCCC1C(=O)Nc1c(C)cccc1C` (stereo not drawn) [BUP50, bupivacaine HCl]: the subjects opioid free result in data set [1] is “No subjects”. Besides, in data set [2], the “median time to first rescue medication” value was 3.63 h. In data set [3] (human, in vivo), the AUC(0-inf) (as a rule, total exposure, with the tail of the curve extrapolated) was 7450 ng·h/mL; the AUC(0-t) (in general, the area under the concentration-time curve up to a stated or last time point) came to 7280 ng·h/mL; the concentration at 60 h came to 43.2 ng/mL; the “median time of Cmax” value is recorded as 0.65 h. Further, the “shape of mean bupivacaine concentration over time” value in data set [3] (in vivo) is “a single peak”. For the same molecule, the peak concentration (Cmax) – broadly, the maximum level reached in the sampled fluid or tissue – in data set [3] (plasma bupivacaine) turned out to be 333.89 ng/mL. Also, in data set [4] (8 hours post dose (first time point with majority)), the “subjects in whom knee extension was not present” value amounted to 71.4%. The “median duration of sensory block” value in data set [4] (in vivo) is 11.63 h. Also, in data set [4] (post-dose), the “time by which all subjects regained normal sensory function” value was at most 24 h. In data set [5] (human), the “subjects with clinically significant abnormal EKG findings” value is 1 subjects, the “subjects with ≥1 TEAE” value worked out at 88.8% and the “subjects with ≥1 TEAE related to study drug” value turned out to be 2 subjects. For the same molecule, the “subjects discontinued from the study following SAEs” value in data set [5] is listed as “One”.
